Results: ChEMBL document CHEMBL5230144, “Synthesis and Biological Evaluation of Celastrol Derivatives with Improved Cytotoxic Selectivity and Antitumor Activities” (J Nat Prod, 2021)

Tests used:
[1] = tested on: MDA-MB-231; assay: cells; settings: Homo sapiens, MDA-MB-231, 48 h
Description: Antiproliferative activity against human MDA-MB-231 cells assessed as inhibition of cell proliferation measured after 48 hrs by MTT assay

[2] = Cytotoxicity against human mesenchymal bone marrow stem cells measured after 48 hrs by MTT assay; assay type: toxicity, cell-based

Structure (SMILES)	IC50 [1] [nM]	IC50 at 48 h [2] [nM]
C#CCOC(=O)[C@]1(C)CC[C@]2(C)CC[C@]3(C)C4=CC=C5C(=CC(=O)C(OC(=O)N6CCCCC6)=C5C)[C@]4(C)CC[C@@]3(C)[C@@H]2C1	100	2400
C#CCOC(=O)[C@]1(C)CC[C@]2(C)CC[C@]3(C)C4=CC=C5C(=CC(=O)C(OC(=O)N(C)CCCC)=C5C)[C@]4(C)CC[C@@]3(C)[C@@H]2C1	300	1000
C#CCOC(=O)[C@]1(C)CC[C@]2(C)CC[C@]3(C)C4=CC=C5C(=CC(=O)C(OC(=O)N6CCN(c7ccccc7OC)CC6)=C5C)[C@]4(C)CC[C@@]3(C)[C@@H]2C1	300	1800
C#CCOC(=O)[C@]1(C)CC[C@]2(C)CC[C@]3(C)C4=CC=C5C(=CC(=O)C(OC(=O)N(CCCC)CCCC)=C5C)[C@]4(C)CC[C@@]3(C)[C@@H]2C1	100	1200
C#CCOC(=O)[C@]1(C)CC[C@]2(C)CC[C@]3(C)C4=CC=C5C(=CC(=O)C(OC(=O)N6CCN(c7ccc(Cl)cc7)CC6)=C5C)[C@]4(C)CC[C@@]3(C)[C@@H]2C1	200	1600
C#CCOC(=O)[C@]1(C)CC[C@]2(C)CC[C@]3(C)C4=CC=C5C(=CC(=O)C(OC(=O)N6CCN(c7cccc(OC)c7)CC6)=C5C)[C@]4(C)CC[C@@]3(C)[C@@H]2C1	300	1800
C#CCOC(=O)[C@]1(C)CC[C@]2(C)CC[C@]3(C)C4=CC=C5C(=CC(=O)C(OC(=O)N6CCCC6)=C5C)[C@]4(C)CC[C@@]3(C)[C@@H]2C1	200	2700
C#CCOC(=O)[C@]1(C)CC[C@]2(C)CC[C@]3(C)C4=CC=C5C(=CC(=O)C(OC(=O)N6c7ccccc7C=Cc7ccccc76)=C5C)[C@]4(C)CC[C@@]3(C)[C@@H]2C1	200	2200
C#CCOC(=O)[C@]1(C)CC[C@]2(C)CC[C@]3(C)C4=CC=C5C(=CC(=O)C(OC(=O)N6c7ccccc7CCc7ccccc76)=C5C)[C@]4(C)CC[C@@]3(C)[C@@H]2C1	300	1000
C#CCOC(=O)[C@]1(C)CC[C@]2(C)CC[C@]3(C)C4=CC=C5C(=CC(=O)C(OC(=O)N(C)CCC)=C5C)[C@]4(C)CC[C@@]3(C)[C@@H]2C1	300	900
C#CCOC(=O)[C@]1(C)CC[C@]2(C)CC[C@]3(C)C4=CC=C5C(=CC(=O)C(OC(=O)N6c7ccccc7Sc7ccccc76)=C5C)[C@]4(C)CC[C@@]3(C)[C@@H]2C1	200	2900
C#CCOC(=O)[C@]1(C)CC[C@]2(C)CC[C@]3(C)C4=CC=C5C(=CC(=O)C(OC(=O)N6CCN(c7ccccc7Cl)CC6)=C5C)[C@]4(C)CC[C@@]3(C)[C@@H]2C1	200	1900
C#CCOC(=O)[C@]1(C)CC[C@]2(C)CC[C@]3(C)C4=CC=C5C(=CC(=O)C(OC(=O)N6CCN(C)CC6)=C5C)[C@]4(C)CC[C@@]3(C)[C@@H]2C1	300	2000
C#CCOC(=O)[C@]1(C)CC[C@]2(C)CC[C@]3(C)C4=CC=C5C(=CC(=O)C(OC(=O)N(CC)CC)=C5C)[C@]4(C)CC[C@@]3(C)[C@@H]2C1	300	3200
C#CCOC(=O)[C@]1(C)CC[C@]2(C)CC[C@]3(C)C4=CC=C5C(=CC(=O)C(OC(=O)N(CCC)CCC)=C5C)[C@]4(C)CC[C@@]3(C)[C@@H]2C1	300	900

More lines, main results first:

IC50 [1] [nM]	Structure (SMILES)	IC50 at 48 h [2] [nM]
300	C#CCOC(=O)[C@]1(C)CC[C@]2(C)CC[C@]3(C)C4=CC=C5C(=CC(=O)C(OC(=O)N(C)CC)=C5C)[C@]4(C)CC[C@@]3(C)[C@@H]2C1	3000
300	C#CCOC(=O)[C@]1(C)CC[C@]2(C)CC[C@]3(C)C4=CC=C5C(=CC(=O)C(OC(=O)/C=C/c6cccc(Cl)c6)=C5C)[C@]4(C)CC[C@@]3(C)[C@@H]2C1	2000
200	C#CCOC(=O)[C@]1(C)CC[C@]2(C)CC[C@]3(C)C4=CC=C5C(=CC(=O)C(OC(=O)N6CCN(c7ccccc7)CC6)=C5C)[C@]4(C)CC[C@@]3(C)[C@@H]2C1	1800
400	C#CCOC(=O)[C@]1(C)CC[C@]2(C)CC[C@]3(C)C4=CC=C5C(=CC(=O)C(OC(=O)/C=C/c6cccc(C)c6)=C5C)[C@]4(C)CC[C@@]3(C)[C@@H]2C1	2900
400	C#CCOC(=O)[C@]1(C)CC[C@]2(C)CC[C@]3(C)C4=CC=C5C(=CC(=O)C(OC(=O)c6ccc(F)cc6)=C5C)[C@]4(C)CC[C@@]3(C)[C@@H]2C1	2000
400	C#CCOC(=O)[C@]1(C)CC[C@]2(C)CC[C@]3(C)C4=CC=C5C(=CC(=O)C(OC(=O)C(=C)C)=C5C)[C@]4(C)CC[C@@]3(C)[C@@H]2C1	2400
300	C#CCOC(=O)[C@]1(C)CC[C@]2(C)CC[C@]3(C)C4=CC=C5C(=CC(=O)C(OC(=O)/C=C/c6ccccc6F)=C5C)[C@]4(C)CC[C@@]3(C)[C@@H]2C1	1400
500	C#CCOC(=O)[C@]1(C)CC[C@]2(C)CC[C@]3(C)C4=CC=C5C(=CC(=O)C(OC(=O)/C=C/c6ccccc6)=C5C)[C@]4(C)CC[C@@]3(C)[C@@H]2C1	2800
500	C#CCOC(=O)[C@]1(C)CC[C@]2(C)CC[C@]3(C)C4=CC=C5C(=CC(=O)C(OC(=O)/C=C/C)=C5C)[C@]4(C)CC[C@@]3(C)[C@@H]2C1	3000
400	C#CCOC(=O)[C@]1(C)CC[C@]2(C)CC[C@]3(C)C4=CC=C5C(=CC(=O)C(OC(=O)CCC)=C5C)[C@]4(C)CC[C@@]3(C)[C@@H]2C1	2600
200	C#CCOC(=O)[C@]1(C)CC[C@]2(C)CC[C@]3(C)C4=CC=C5C(=CC(=O)C(OC(=O)N(c6ccccc6)c6ccccc6)=C5C)[C@]4(C)CC[C@@]3(C)[C@@H]2C1	3100
200	C#CCOC(=O)[C@]1(C)CC[C@]2(C)CC[C@]3(C)C4=CC=C5C(=CC(=O)C(OC(=O)N(C)C)=C5C)[C@]4(C)CC[C@@]3(C)[C@@H]2C1	2000
300	C#CCOC(=O)[C@]1(C)CC[C@]2(C)CC[C@]3(C)C4=CC=C5C(=CC(=O)C(OC(=O)c6ccc(Br)cc6)=C5C)[C@]4(C)CC[C@@]3(C)[C@@H]2C1	2200
500	C#CCOC(=O)[C@]1(C)CC[C@]2(C)CC[C@]3(C)C4=CC=C5C(=CC(=O)C(OC(C)=O)=C5C)[C@]4(C)CC[C@@]3(C)[C@@H]2C1	2400
700	C#CCOC(=O)[C@]1(C)CC[C@]2(C)CC[C@]3(C)C4=CC=C5C(=CC(=O)C(OC(=O)C=C)=C5C)[C@]4(C)CC[C@@]3(C)[C@@H]2C1	3700
